# Assay results taken from patent US7271174B2, “Metabolites of tricyclic amides useful for inhibition of G-protein function and methods of treatment of proliferative diseases” (Schering Corporation, priority 2003, dated 2007).
# Molecular target: purified human farnesyl protein transferase (Homo sapiens, UniProt P49354+P49356)
# Assay: (H-Ras) Farnesyl Transferase Inhibition assay
# Format: biochemical
# Settings: transfer of [3H] farnesyl from [3H] farnesyl pyrophosphate to biotin-CVLS peptide; 37° C., 60 minutes; SPA beads
# Method: Assay Conditions for (H-Ras) FPT
# FPT activity was determined by measuring the transfer of [^3H] farnesyl from [^3H] farnesyl pyrophosphate to a biotinylated peptide derived from the C-terminus of H-Ras (biotin-CVLS). […] The reaction mixture was incubated in a Vortemp shaking incubator at 37° C., 45 RPM for 60 minutes and stopped with 150 μL of 0.25 M EDTA containing 0.5% BSA and 1.3 mg/ml Streptavidin SPA beads. […] Percent inhibition was calculated relative to the vehicle control.
row,Compound,IC50 [nM]
1,"NC(=O)N1CC=C(CC(=O)N2CCC([C@H]3c4ncc(Br)cc4CCc4cc(Cl)cc(Br)c43)CC2)CC1 [Compound 8, (+)-4-[2-[4-(3,10-dibromo-8-chloro-6,11-dihydro-5H-benzo[5,6]cyclohepta[1,2-b]pyridin-11(R)-yl)-1-piperidinyl]-2-oxoethyl]-3,4-didehydro-1-piperidine-carboxamide]",2.6
2,"NC(=O)N1CCC(=CC(=O)N2CCC([C@H]3c4ncc(Br)cc4CCc4cc(Cl)cc(Br)c43)CC2)CC1 [Compound 9, (+)-4-[2-[4-(3,10-Dibromo-8-chloro-6,11-dihydro-5H-benzo[5,6]cyclohepta[1,2-b]pyridin-11(R)-yl)-1-piperidinyl]-2-oxoethylidene]-1-piperidinecarboxamide]",23.3
